Reference: US4312874A, “Antibacterial compounds, processes for their preparation and compositions containing them” (Beecham Group Limited, priority 1979, dated 1982)
Converted amounts (≈) assume the structure as drawn. Where two headings read alike, the source gives them in different places.

Columns and labels:
E. coli ESS = assay: MIC by serial dilution in nutrient agar with 5% chocolated horse blood; type: cell-based; details: Escherichia coli; Table 1
[1] = test system: Haemophilus influenzae Wy21; assay: as above; type: cell-based
[2] = test system: Neisseria catarrhalis 1502; assay: as above; type: cell-based
Bacillus subtilis 6633 = assay: as above; type: cell-based; details: Table 1
[3] = test system: Corynebacterium xerosis 9755; assay: as above; type: cell-based; details: Table 1
Sarcina lutea 8340 = assay: as above; type: cell-based; details: Micrococcus luteus
M. suipneumoniae JF 435 = assay: in vitro MIC by serial dilution in Friis modified agarose medium; type: cell-based; details: Mesomycoplasma hyopneumoniae, JF435; Table 3
M. suipneumoniae Str. 11 = assay: as above; type: cell-based; details: Mesomycoplasma hyopneumoniae, Table 3
[4] = test system: M. suipneumoniae ATCC 25095; assay: as above; type: cell-based; details: Mesomycoplasma hyopneumoniae, ATCC25095; Table 3
[5] = test system: M. suipneumoniae NCTC 10110; assay: as above; type: cell-based; details: Mesomycoplasma hyopneumoniae, NCTC10110; Table 3
M. hyorhinis ATCC 23234 = assay: as above; type: cell-based; details: Mesomycoplasma hyorhinis, ATCC23234; Table 3
[6] = Mouse blood levels of Example 3 following oral and subcutaneous administration; type: in vivo, albino male mice (strain OLAC: MF-1); details: read-out: blood conc.; for concentration at 0.5 h: 30 min; for concentration at 0.75 h: 45 min; for concentration at 1 h: 60 min; for concentration at 1.5 h: 90 min
Method: Mouse blood levels of Example 3 following its oral and subcutaneous administration
Blood levels were assessed in albino male mice (strain OLAC: MF-1, 18-22 g). The dose was 50 mg/kg administered in a 10% ethanol solution orally and subcutaneously. The mice were killed at intervals up to 90 min and the blood assayed microbiologically using B. subtilis ATCC 6633 in TSA at pH 8.0.

[7] = Mean serum concentrations in neonatal piglets after intramuscular or oral administration; type: in vivo; details: pig; for concentration at 1 h: 60'
Method: Mean serum concentrations in neonatal piglets of Example 3 after intramuscular or oral administration at 50 mg/kg
Blood levels were assessed in neonatal piglets (mean bodyweight ca. 3 kg). The dose was 50 mg/kg administered as a 25 mg/ml of 25% aqueous ethanol solution. Doses were given by intramuscular injection and orally by stomach tube. Piglets were bled at intervals up to 24 hr and the serum assayed microbiologically using B. subtilis ATCC 6633.

[8] = Mean serum concentrations in milk weaned piglets after oral administration; type: in vivo; details: pig, p.o. 50 mg/kg
Method: Mean serum concentrations in milk weaned piglets of Example 3 after oral administration at 50 mg/kg
Blood levels were assessed in milk weaned piglets (mean bodyweight 4.1 kg). The dose was 50 mg/kg administered orally (intubation) as a 25 mg/ml of 25% aqueous ethanol solution. Piglets were bled at intervals up to […] and the serum assayed microbiologically using B. subtilis ATCC 6633.

S. typhimurium S18 = assay: MIC by agar dilution, veterinary bacteria; details: Salmonella enterica, 24 h
Bord. bronchiseptica B09 = assay: MIC by agar dilution, veterinary bacteria; details: Bordetella bronchiseptica, B09, 24 h
Past. haemolytica PA5 = assay: MIC by agar dilution, veterinary bacteria; details: Mannheimia haemolytica, PA5, 24 h
[9] = test system: Erysipelothrix rhusiopathiae NCTC 8163; assay: MIC by agar dilution, veterinary bacteria; details: NCTC8163, 24 h
Staph. aureus Oxford = assay: MIC by agar dilution, veterinary bacteria; details: Staphylococcus aureus, 24 h
Strep. dysgalactiae SPD1 = assay: MIC by agar dilution, veterinary bacteria; details: Streptococcus dysgalactiae, SPD1, 24 h
Strep. pyogenes A 64/848 = assay: MIC by serial dilution in nutrient agar with 5% chocolated horse blood; type: cell-based; details: Streptococcus pyogenes, A64/848; Table 1
[10] = Mouse blood levels of Example 1 following oral and subcutaneous administration; type: in vivo, albino male mice; details: read-out: blood conc.; for concentration at 0.5 h: 30 min; for concentration at 1 h: 60 min; for concentration at 2 h: 120 min; for concentration at 4 h: 240 min
Method: Mouse blood levels of Example 1 following its oral and subcutaneous administration
Blood levels were assessed in albino male mice (18-22 g CSI). The dose was 50 mg/kg administered in a 10% DMF solution orally and subcutaneously. The mice were killed at intervals up to 4 hours and the blood assayed microbiologically using B. subtilis.

Molecule `CCCCC(=O)C=C(C)CC1OCC(CC2OC2C(C)C(C)O)C(O)C1O` [Example 3, 1-[3R,4R-Dihydroxy-5S-(2S,3S-epoxy-5S-hydroxy-4S-methylhexyl)tetrahydropyran-2S-yl]-2-methyloct-2E-en-4-one] has an MIC (E. coli ESS) of 1 µg/mL (≈ 2.6 µM), an MIC ([1]; Table 1, read-out: MIC) of 0.2 µg/mL (≈ 0.52 µM) and an MIC ([2]; Table 1, read-out: MIC) of 0.5 µg/mL (≈ 1.3 µM). The MIC (Bacillus subtilis 6633) was 0.5 µg/mL (≈ 1.3 µM), the MIC [3] was 100 µg/mL (≈ 260 µM) and the MIC (Sarcina lutea 8340; Table 1, read-out: MIC) was > 100 µg/mL. It also gave an MIC (M. suipneumoniae JF 435) of 1 µg/mL (≈ 2.6 µM), an MIC (M. suipneumoniae Str. 11) of 0.5 µg/mL (≈ 1.3 µM) and an MIC [4] of 1 µg/mL (≈ 2.6 µM). For the same molecule, the MIC [5] was 1 µg/mL (≈ 2.6 µM), the MIC (M. hyorhinis ATCC 23234) was 0.5 µg/mL (≈ 1.3 µM) and the concentration at 5 min ([6]; oral 50 mg/kg) was 9400 ng/mL. For the same molecule, the concentration at 10 min ([6]; oral 50 mg/kg) was 5100 ng/mL, the concentration at 20 min ([6]; oral 50 mg/kg) was < 1500 ng/mL and the concentration at 0.5 h ([6]; oral 50 mg/kg) was < 1500 ng/mL. For the same molecule, the concentration at 0.75 h ([6]; oral 50 mg/kg) was < 1500 ng/mL, the concentration at 1 h ([6]; oral 50 mg/kg) was < 1500 ng/mL and the concentration at 1.5 h ([6]; oral 50 mg/kg) was < 1500 ng/mL. It also gave a concentration at 5 min ([6]; sc, subcutaneous 50 mg/kg) of 19800 ng/mL, a concentration at 10 min ([6]; sc, subcutaneous 50 mg/kg) of 15500 ng/mL and a concentration at 20 min ([6]; sc, subcutaneous 50 mg/kg) of 7300 ng/mL. For the same molecule, the concentration at 0.5 h ([6]; sc, subcutaneous 50 mg/kg) was 2200 ng/mL, the concentration at 0.75 h ([6]; sc, subcutaneous 50 mg/kg) was < 1500 ng/mL and the concentration at 1 h ([6]; sc, subcutaneous 50 mg/kg) was < 1500 ng/mL. The concentration at 1.5 h ([6]; sc, subcutaneous 50 mg/kg) was < 1500 ng/mL, the concentration at 10 min ([7]; im, i.m. 50 mg/kg) was 8500 ng/mL and the concentration at 20 min ([7]; im, i.m. 50 mg/kg) was 7900 ng/mL. The concentration at 40 min ([7]; im, i.m. 50 mg/kg) was 5100 ng/mL, the concentration at 1 h ([7]; im, i.m. 50 mg/kg) was 4300 ng/mL and the concentration at 2 h ([7]; im, i.m. 50 mg/kg) was 1300 ng/mL. The concentration at 3 h ([7]; im, i.m. 50 mg/kg) was 1200 ng/mL, the concentration at 4 h ([7]; im, i.m. 50 mg/kg) was < 70 ng/mL and the concentration at 10 min ([7]; po, p.o. 50 mg/kg) was 3100 ng/mL. The concentration at 20 min ([7]; po, p.o. 50 mg/kg) was 2000 ng/mL, the concentration at 40 min ([7]; po, p.o. 50 mg/kg) was 1400 ng/mL and the concentration at 1 h ([7]; po, p.o. 50 mg/kg) was 830 ng/mL. The concentration at 2 h ([7]; po, p.o. 50 mg/kg) was 700 ng/mL, the concentration at 3 h ([7]; po, p.o. 50 mg/kg) was 600 ng/mL and the concentration at 4 h ([7]; po, p.o. 50 mg/kg) was < 70 ng/mL. It also gave a concentration at 10 min ([8]; 10') of 2100 ng/mL, a concentration at 20 min ([8]; 20') of 1900 ng/mL and a concentration at 40 min ([8]; 40') of 720 ng/mL. It also gave a concentration at 1 h ([8]; 60') of 1100 ng/mL, a concentration at 2 h ([8]; 2 hr) of 480 ng/mL and a concentration at 3 h ([8]; 3 hr) of 370 ng/mL. For the same molecule, the concentration at 4 h ([8]; 4 hr) was 200 ng/mL, the concentration at 6 h ([8]; 6 hr) was 110 ng/mL and the concentration at 8 h ([8]; 8 hr) was < 60 ng/mL. The MIC (S. typhimurium S18) was > 80 µg/mL, the MIC (Bord. bronchiseptica B09) was 40 µg/mL (≈ 104 µM) and the MIC (Past. haemolytica PA5) was 20 µg/mL (≈ 52 µM). For the same molecule, the MIC [9] was > 80 µg/mL, the MIC (Staph. aureus Oxford) was 2.5 µg/mL (≈ 6.5 µM) and the MIC (Strep. dysgalactiae SPD1) was 10 µg/mL (≈ 26 µM).

In the case of `CC(=O)C=C(C)CC1OCC(CC2OC2C(C)C(C)O)C(O)C1O` [Example 1, 1-[3R,4R-Dihydroxy-5S-(2S,3S-epoxy-5S-hydroxy-4S-methylhexyl)-2,3,5,6-tetrahydropyran-2-S-yl]-2-methylpent-2E-en-4-one], the MIC (E. coli ESS) is reported as 10 µg/mL (≈ 29.2 µM), the MIC ([1]; Table 1, read-out: MIC) is reported as 1 µg/mL (≈ 2.92 µM) and the MIC ([2]; Table 1, read-out: MIC) is reported as 0.2 µg/mL (≈ 0.584 µM). The MIC (Bacillus subtilis 6633) was 5 µg/mL (≈ 14.6 µM), the MIC [3] was > 100 µg/mL and the MIC (Sarcina lutea 8340; Table 1, read-out: MIC) was > 100 µg/mL. For the same molecule, the MIC (Strep. pyogenes A 64/848) was 50 µg/mL (≈ 146 µM), the MIC (M. suipneumoniae JF 435) was 10 µg/mL (≈ 29.2 µM) and the MIC (M. suipneumoniae Str. 11) was 5 µg/mL (≈ 14.6 µM). For the same molecule, the MIC [4] was 10 µg/mL (≈ 29.2 µM), the MIC [5] was > 10 µg/mL and the MIC (M. hyorhinis ATCC 23234) was 10 µg/mL (≈ 29.2 µM). For the same molecule, the concentration at 5 min ([10]; oral 50 mg/kg) was 5900 ng/mL, the concentration at 10 min ([10]; oral 50 mg/kg) was 7700 ng/mL and the concentration at 20 min ([10]; oral 50 mg/kg) was 4800 ng/mL. The concentration at 0.5 h ([10]; oral 50 mg/kg) was < 3000 ng/mL, the concentration at 1 h ([10]; oral 50 mg/kg) was < 3000 ng/mL and the concentration at 2 h ([10]; oral 50 mg/kg) was < 3000 ng/mL. For the same molecule, the concentration at 4 h ([10]; oral 50 mg/kg) was < 3000 ng/mL, the concentration at 5 min ([10]; sc, subcutaneous 50 mg/kg) was 16400 ng/mL and the concentration at 10 min ([10]; sc, subcutaneous 50 mg/kg) was 15300 ng/mL. The concentration at 20 min ([10]; sc, subcutaneous 50 mg/kg) was 9800 ng/mL, the concentration at 0.5 h ([10]; sc, subcutaneous 50 mg/kg) was 5000 ng/mL and the concentration at 1 h ([10]; sc, subcutaneous 50 mg/kg) was < 3000 ng/mL. The concentration at 2 h ([10]; sc, subcutaneous 50 mg/kg) was < 3000 ng/mL, the concentration at 4 h ([10]; sc, subcutaneous 50 mg/kg) was < 3000 ng/mL and the MIC (S. typhimurium S18) was > 80 µg/mL. For the same molecule, the MIC (Bord. bronchiseptica B09) was 20 µg/mL (≈ 58.4 µM), the MIC (Past. haemolytica PA5) was 10 µg/mL (≈ 29.2 µM) and the MIC [9] was > 80 µg/mL. For the same molecule, the MIC (Strep. dysgalactiae SPD1) was 80 µg/mL (≈ 234 µM).

In the case of `CCC(=O)C=C(C)CC1OCC(CC2OC2C(C)C(C)O)C(O)C1O` [Example 2, 1-[3R,4R-Dihydroxy-5S-(2S,3S-epoxy-5-S-hydroxy-4S-methylhexyl)tetrahydropyran-2S-yl]-2-methylhex-2E-en-4-one], the MIC [1] is reported as 0.5 µg/mL (≈ 1.4 µM), the MIC [2] is reported as 0.5 µg/mL (≈ 1.4 µM) and the MIC (Bacillus subtilis 6633) is reported as 2.5 µg/mL (≈ 7.01 µM). For the same molecule, the MIC [3] was 25 µg/mL (≈ 70.1 µM), the MIC (Sarcina lutea 8340) was > 50 µg/mL and the MIC (Strep. pyogenes A 64/848) was 12.5 µg/mL (≈ 35.1 µM). The MIC (M. suipneumoniae JF 435) was 5 µg/mL (≈ 14 µM), the MIC (M. suipneumoniae Str. 11) was 2.5 µg/mL (≈ 7.01 µM) and the MIC [4] was 2.5 µg/mL (≈ 7.01 µM). The MIC [5] was 5 µg/mL (≈ 14 µM), the MIC (M. hyorhinis ATCC 23234) was 2.5 µg/mL (≈ 7.01 µM) and the MIC (S. typhimurium S18) was > 40 µg/mL. For the same molecule, the MIC (Bord. bronchiseptica B09) was 40 µg/mL (≈ 112 µM), the MIC (Past. haemolytica PA5) was 5 µg/mL (≈ 14 µM) and the MIC [9] was > 40 µg/mL. The MIC (Staph. aureus Oxford) was 0.312 µg/mL (≈ 0.875 µM) and the MIC (Strep. dysgalactiae SPD1) was 20 µg/mL (≈ 56.1 µM).
